In the test the target is T1, recombinant human GST-SYK (Homo sapiens, UniProt P43405).
T1 construct: purchased Carna Biosciences 08-176
Briefly: Homogeneous Time-Resolved Fluorescence (HTRF) assay for the recombinant human Syk enzyme. The format is biochemical. Particulars: recombinant human GST-SYK 5 pM, ATP 25 μM, read-out: rhSYK IC50. As for the experimental part:
Homogeneous Time-Resolved Fluorescence (HTRF) Assay for the Recombinant Human Syk Enzyme
A recombinant GST-hSYK fusion protein was used to measure potency of compounds to inhibit human Syk activity. The recombinant human GST-SYK (Carna Biosciences #08-176) (5 pM final concentration) was incubated with various concentrations of the inhibitor diluted in DMSO (0.1% final concentration) for 10 minutes at room temperature in 15 mM Tris-HCl (pH 7.5), 0.01% tween 20, 2 mM DTT in 384 well plate format. To initiate the reaction the biotinylated substrate peptide (250 nM final concentration) that contains the phosphorylation site for Syk was added with magnesium (5 mM final concentration) and ATP (25 μM final concentration). Final volume of the reaction was 10 μL. Phosphorylation of the peptide was allowed to proceed for 45′ at room temperature. To quench the reaction and detect the phosphorylated product, 2 nM of a Europium-anti-phosphotyrosine antibody (Perkin Elmer #AD0161) and 70 nM SA-APC (Perkin-Elmer #CR130-100) were added together in 15 mM Tris pH 7.5, 40 mM EDTA, 0.01% tween 20. Final volume of the quenching solution was 10 μL.
The resulting HTRF signal was measured after 30 minutes on an EnVision (Perkin-Elmer) reader using a time-resolved fluorescence protocol. Table A below lists activities as IC50 values (nM) for representative compounds of the invention.

The structures appear in SMILES notation.

`Cc1cc(Nc2cnccn2)nc(-c2cnc([C@@]3(O)CC[C@H](C(=O)O)C(C)(C)C3)s2)c1` (single isomer, unassigned) [Example 3.8, (1S,4R or 1R,4S)-4-hydroxy-2,2-dimethyl-4-{5-[4-methyl-6-(pyrazin-2-ylamino)pyridin-2-yl]-1,3-thiazol-2-yl}cyclohexanecarboxylic acid]: the IC50 was 0.608 nM.

In the case of `OC1(c2ncc(-c3cncc(Nc4nccc(C(F)(F)F)n4)c3)s2)CCC1` [Example 2.3], the IC50 was 189 nM.

Regarding `COC(=O)C1CCC(O)(c2ncc(-c3nc(C)cc(Nc4cc(C(F)(F)F)ccn4)n3)s2)CC1(C)C` (centres unmarked) [Example 1.10, methyl 4-hydroxy-2,2-dimethyl-4-[5-(4-methyl-6-{[4-(trifluoromethyl)pyridin-2-yl]amino}pyrimidin-2-yl)-1,3-thiazol-2-yl]cyclohexane-carboxylate], the IC50 was 8.85 nM.

Turning to `CCCCOC(=O)[C@H]1CC[C@H](C(C)(O)c2ncc(-c3cc(Nc4nccc(C(F)(F)F)n4)cc(C)n3)s2)CC1` (single isomer, unassigned) [Example 4.6, butyl (trans)-4-((R or S)-1-hydroxy-[5-(6-methyl-4-{[4-(trifluoromethyl)pyrimidin-2-yl]amino}pyridin-2-yl)-1,3-thiazol-2-yl]ethyl}cyclohexane carboxylate], the IC50 was determined as 375 nM.

Consider `Cc1cc(Nc2cncc(C(F)(F)F)n2)cc(-c2cnc(C3(O)CCC(C(=O)O)C(C)(C)C3)s2)c1` (single isomer, unassigned) [Example 2.4, (1S,4R or 1R,4S)-4-hydroxy-2,2-dimethyl-4-[5-(3-methyl-5-{[6-(trifluoromethyl)pyrazin-2-yl]amino}phenyl)-1,3-thiazol-2-yl]cyclohexane-carboxylic acid], for which the IC50 was 4200 nM.

Regarding `CC1(C)CC(O)(c2ncc(-c3cccc(Nc4cc(C(F)(F)F)ncn4)n3)s2)CCC1C(=O)O` (single isomer, unassigned) [Example 3.7, (1S,4R or 1R,4S)-4-hydroxy-2,2-dimethyl-4-[5-(6-{[6-(trifluoromethyl)pyrimidin-4-yl]amino}pyridin-2-yl)-1,3-thiazol-2-yl]cyclohexanecarboxylic acid], the IC50 is 4.54 nM.

With `Cc1cc(-c2cnc(C3(O)CCC3)s2)nc(Nc2cc(C(F)(F)F)ccn2)n1` [Example 4.4, 1-[5-(6-methyl-2-{[4-(trifluoromethyl)pyridin-2-yl]amino}pyrimidin-4-yl)-1,3-thiazol-2-yl]cyclobutanol], the half-maximal inhibitory concentration (IC50) was 43.4 nM.

As for `Cc1cc(Nc2cc(C(F)(F)F)ncn2)nc(-c2cnc(C3(O)CCCc4cc(C(=O)O)ccc43)s2)c1` (single isomer, unassigned) [Example 2.7, (R or S)-5-hydroxy-5-[5-(4-methyl-6-{[6-(trifluoromethyl)pyrimidin-4-yl]amino}pyridin-2-yl)-1,3-thiazol-2-yl]-5,6,7,8-tetrahydronaphthalene-2-carboxylic acid], the IC50 amounted to 0.516 nM.

Regarding `Cc1cnnc(Nc2cc(C)cc(-c3cnc([C@@]4(O)CC[C@H](C(=O)O)C(C)(C)C4)s3)n2)c1` (single isomer, unassigned) [Example 3.3, (1S,4R or 1R,4S)-4-hydroxy-2,2-dimethyl-4-(5-{4-methyl-6-[(5-methylpyridazin-3-yl)amino]pyridin-2-yl}-1,3-thiazol-2-yl)cyclohexanecarboxylic acid], the IC50 came out at 182 nM.

As for `Cc1cc(Nc2cc(C(F)(F)F)ncn2)nc(-c2cnc([C@@]3(O)CC[C@H](C(=O)O)[C@H](C)C3)s2)c1` (single isomer, unassigned) [Example 1.4, rel-(1S,2R,4R or S)-4-hydroxy-2-methyl-4-[5-(4-methyl-6-{[6-(trifluoromethyl)pyrimidin-4-yl]amino}pyridin-2-yl)-1,3-thiazol-2-yl]cyclohexane-carboxylic acid], the IC50 was 0.475 nM.

As for `CCc1cc(Nc2cc(C)cc(-c3cnc(C4(O)CCCc5cc(C(=O)O)ccc54)s3)n2)ncn1` (single isomer, unassigned) [Example 2.11, (R or S)-5-(5-{6-[(6-ethylpyrimidin-4-yl)amino]-4-methylpyridin-2-yl}-1,3-thiazol-2-yl)-5-hydroxy-5,6,7,8-tetrahydronaphthalene-2-carboxylic acid], the IC50 turned out to be 0.0649 nM.

Consider `COc1ccnc(Nc2cc(C)nc(-c3cnc(C(C)(O)[C@H]4CC[C@H](C(=O)O)CC4)s3)c2)n1` (single isomer, unassigned) [Example 4.9, (trans)-4-((R or S)-1-hydroxy-1-(5-{4-[(4-methoxypyrimidin-2-yl)amino]-6-methylpyridin-2-yl}-1,3-thiazol-2-yl)ethyl]cyclohexane carboxylic acid], for which the IC50 was 0.594 nM.

`Cc1cc(Nc2cc(C)ccn2)cc(-c2cnc(C(C)(O)C3CCC(C(=O)O)CC3)s2)c1` (single isomer, unassigned) [Example 4.15, (trans)-4-((R or S)-[1-hydroxy-1-(5-{3-methyl-5-[(4-methylpyridin-2-yl)amino]phenyl}-1,3-thiazol-2-yl)ethyl]cyclohexanecarboxylic acid]: the half-inhibitory concentration (IC50) worked out at 29.3 nM.

Regarding `COC(=O)C1CCC(O)(c2ncc(-c3cc(Nc4nccc(C(F)(F)F)n4)cc(C)n3)s2)CC1(C)C` (centres unmarked) [Example 1.8, methyl 4-hydroxy-2,2-dimethyl-4-[5-(6-methyl-4-{[4-(trifluoromethyl)pyrimidin-2-yl]amino}pyridin-2-yl)-1,3-thiazol-2-yl] cyclohexane-carboxylate], the half-inhibitory concentration (IC50) is 8.37 nM.

With `Cc1cc(Nc2cc(C(F)(F)F)ccn2)nc(-c2cnc(C3(O)CCC(C(=O)O)C(C)(C)C3)s2)n1` (single isomer, unassigned) [Example 1.12, (1S,4R or 1R,4S)-4-hydroxy-2,2-dimethyl-4-[5-(4-methyl-6-{[4-(trifluoromethyl)pyridin-2-yl]amino}pyrimidin-2-yl)-1,3-thiazol-2-yl]cyclohexane-carboxylic acid], the half-maximal inhibitory concentration (IC50) was 0.698 nM.

`Cc1cc(Nc2cc(C(F)(F)F)ncn2)nc(-c2cnc(C3(O)CCC(C(N)=O)C(C)(C)C3)s2)c1` (single isomer, unassigned) [Example 3.5, (1S,4R or 1R,4S)-4-hydroxy-2,2-dimethyl-4-[5-(4-methyl-6-{[6-(trifluoromethyl)pyrimidin-4-yl]amino}pyridin-2-yl)-1,3-thiazol-2-yl]cyclohexanecarboxamide]: the concentration for half-maximal inhibition (IC50) came to 0.562 nM.

Take `Cc1cc(Nc2nccc(C(F)F)n2)cc(-c2cnc(C(C)(O)C3CCC(C(=O)O)CC3)s2)n1` (single isomer, unassigned) [Example 4.17, (trans)-4-((R or S)-{1-[5-(4-{[4-(difluoromethyl)pyrimidin-2-yl]amino}-6-methylpyridin-2-yl)-1,3-thiazol-2-yl]-1-hydroxyethyl}cyclo-hexanecarboxylic acid]: the IC50 was 1.37 nM.

Take `Cc1cc(Nc2cc(C)ncn2)nc(-c2cnc(C3(O)CCCc4cc(C(=O)O)ccc43)s2)c1` (single isomer, unassigned) [Example 2.9, (R or S)-5-hydroxy-5-(5-{4-methyl-6-[(6-methylpyrimidin-4-yl)amino]pyridin-2-yl}-1,3-thiazol-2-yl)-5,6,7,8-tetrahydronaphthalene-2-carboxlic acid]: the IC50 came out at 0.212 nM.

Take `CCCCOC(=O)[C@H]1CC[C@H](C(C)(O)c2ncc(-c3cc(Nc4nccc(C)n4)cc(C)n3)s2)CC1` (single isomer, unassigned) [Example 4.10, butyl (trans)-4-((R or S)-1-hydroxy-1-(5-{6-methyl-4-[(4-methylpyrimidin-2-yl)amino]pyridin-2-yl}-1,3-thiazol-2-yl)ethyl]cyclohexane carboxylate]: the IC50 is 94 nM.

As to `CC(O)(c1ncc(-c2cncc(Nc3cc(C(F)(F)F)ccn3)n2)s1)[C@H]1CC[C@H](C(=O)O)CC1` (single isomer, unassigned) [Example 4.12, (trans)-4-((R or S)-1-hydroxy-1-[5-(6-{[4-(trifluoromethyl)pyridin-2-yl]amino}pyrazin-2-yl)-1,3-thiazol-2-yl]ethyl}cyclohexane carboxylic acid], the IC50 turned out to be 1.82 nM.

Consider `COc1cc(Nc2nccc(C(F)(F)F)n2)cc(-c2cnc(C(C)(O)[C@H]3CC[C@H](C(=O)O)CC3)s2)n1` (single isomer, unassigned) [Example 4.21, (trans)-4-((R or S)-1-hydroxy-1-[5-(6-methoxy-4-{[4-(trifluoromethyl)pyrimidin-2-yl]amino}pyridin-2-yl)-1,3-thiazol-2-yl]ethyl}cyclohexane carboxylic acid], for which the concentration for half-maximal inhibition (IC50) was determined as 2.12 nM.

For `Cc1cc(Nc2nccc(OC(C)C)n2)cc(-c2cnc(C3(O)CCC(C(=O)O)C(C)(C)C3)s2)n1` (centres unmarked) [Example 1.16, 4-hydroxy-2,2-dimethyl-4-[5-(6-methyl-4-{[4-(1-methylethoxy)pyrimidin-2-yl]amino}pyridin-2-yl)-1,3-thiazol-2-yl] cyclohexane-carboxylic acid], the IC50 amounted to 0.697 nM.

As for `Cc1cc(Nc2ncc(F)c(C)n2)cc(-c2cnc(C(C)(O)[C@H]3CC[C@H](C(=O)O)CC3)s2)n1` (single isomer, unassigned) [Example 4.20, (trans)-4-((R or S)-1-(5-{4-[(5-fluoro-4-methylpyrimidin-2-yl)amino]-6-methylpyridin-2-yl}-1,3-thiazol-2-yl)-1-hydroxyethyl]cyclo-hexanecarboxylic acid], the half-maximal inhibitory concentration (IC50) was 4.4 nM.
